Assay results reported in PubChem BioAssay (NCI).
“And” between values parts separate entries of the source, which are not always exact repeats. Identical values can stand only once.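 Where inhibition never reached the appropriate level, the endpoint shown equals the highest concentration tested. Otherwise, values were interpolated linearly from a five-concentration, 48-hour dose response in 96-well plates. At the GI50, growth is halved. At the TGI there is no net growth.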

Columns and labels:
Experiment in all cases: NCI tumour cell line growth inhibition, 48 h
[1] = tested on: A549 NSCLC
[2] = tested on: DLD-1 colon
[3] = tested on: KM20L2 colon
[4] = tested on: M14 melanoma
[5] = tested on: SK-MEL-28 melanoma
[6] = tested on: SW-620 colon
[7] = tested on: U251 CNS
[8] = tested on: UO-31 renal
[9] = tested on: SK-MEL-5 melanoma
[10] = tested on: MDA-MB-435

SMILES	TGI [1]	TGI [2] [µM]	TGI [3] [µM]	TGI [4]	TGI [5]	TGI [6] [µM]	TGI [7]	TGI [8]	TGI [9]	GI50 [1] [µM]	GI50 [2] [µM]	GI50 [3] [µM]	GI50 [4] [µM]	GI50 [5] [µM]	GI50 [6] [µM]	GI50 [7]	GI50 [8] [µM]	TGI [10]	GI50 [10] [µM]	GI50 [9] [µM]
CCCCCCCCCCCCCCCCc1c(C(=O)OC)nc(NC#N)[nH]c1=O	> 25 µM	> 25	> 25	> 25 µM	> 25 µM	> 25	> 25 µM	> 25 µM	–	–	–	–	–	–	–	–	–	–	–	–
C=C(C)CC(C(=O)O)c1ccc(C)cc1 (configuration not stated)	> 100 µM	> 100	> 100	–	> 100 µM	> 100	> 100 µM	–	> 100 µM	–	–	–	–	–	–	–	–	–	–	–
O=C1CCCc2ccc([N+](=O)[O-])c(O)c21	> 100 µM	> 100	> 100	> 100 µM	> 100 µM	> 100	> 100 µM	> 100 µM	> 100 µM	–	–	–	–	–	–	–	–	–	–	–
Cn1cnc([N+](=O)[O-])c1Sc1n[nH]c(-c2ccc(Cl)cc2)n1	77.8 µM	52.5	–	33.5 µM	30.3 µM	78	48.9 µM	60.5 µM	29.8 µM	–	–	–	–	–	–	–	–	–	–	–
c1cc[c]([Ge]([O]c2cccc3cccnc23)([c]2ccccc2)[c]2ccccc2)cc1	21.7 µM	11.3	5.97	17.5 µM	14.3 µM	7.46	13.4 µM	23.7 µM	–	5.34	3.22	2.59	5.63	3.56	3.02	3.83 µM	11.5	–	–	–
C[C@]12Cc3conc3C(O)=C1CC[C@@H]1C2CC[C@@]2(C)C1CC[C@@H]2O (some centres not stated)	85.2 µM	–	> 100	50 µM	> 100 µM	> 100	64.4 µM	53.3 µM	29.9 µM	–	–	–	–	–	–	–	–	–	–	–
NC1=NN(c2ccccc2)C(=O)C1C(=O)C(=O)Nc1ccccc1 (configuration not stated)	> 100 µM	> 100	> 100	> 100 µM	–	> 100	> 100 µM	> 100 µM	> 100 µM	–	–	–	–	–	–	–	–	–	–	–
CC1OC(n2cc(F)c(=O)[nH]c2=O)CCC1=O (configuration not stated)	> 100 µM	> 100	> 100	> 100 µM	–	> 100	> 100 µM	> 100 µM	> 100 µM	–	–	–	–	–	–	–	–	–	–	–
N#CC(Sc1ccccc1)C(N)=O (configuration not stated)	> 100 µM	> 100	> 100	> 100 µM	–	> 100	> 100 µM	> 100 µM	> 100 µM	–	–	–	–	–	–	–	–	–	–	–
COc1ccc(O)c(/C=N\Nc2ccccc2)c1	48.4 µM	–	–	73.2 µM	91.4 µM	22.6	> 100 µM	> 100 µM	> 100 µM	–	–	–	–	–	–	–	–	43.8 µM	–	–
CC(=O)N1c2ccccc2N(C(C)=O)C1c1ccc(C2N(C(C)=O)c3ccccc3N2C(C)=O)[nH]1	> 100 µM	–	> 100	> 100 µM	–	> 100	> 100 µM	> 100 µM	> 100 µM	–	–	–	–	–	–	–	–	–	–	–
Cc1nnn(C)c1-c1cnc2c3ccc(C(C)(C)O)cc3n([C@H](c3ccccc3)C3CCOCC3)c2c1	31.9 µM	–	–	30.9 µM	> 100 µM	> 72.1	> 47.5 µM	13.4 µM	10.7 µM	0.037	–	–	< 0.01	1.96	7	0.27 µM	< 0.01	> 100 µM	< 0.01	< 0.01
C[C@@H]1CC[C@@]2(C)OC(c3ccccc3)[C@H](CO)N2C1=O (some centres not stated)	> 100 µM	> 100	> 100	–	> 100 µM	> 100	> 100 µM	–	> 100 µM	–	–	–	–	–	–	–	–	–	–	–
COc1ccc(Nc2ncc(I)c(NCCCNC(=O)C3CCC3)n2)cc1	24.6 µM	–	–	> 100 µM	> 100 µM	> 100	28.9 µM	3.85 µM	28.7 µM	4.6	–	–	13.4	18	9.28	2.08 µM	0.73	> 100 µM	17.1	10.1
COc1cc(-n2cc(-c3ccc(Cl)cc3)n(-c3ccccc3)c2=O)cc(OC)c1OC	> 100 µM	–	–	98.9 µM	> 100 µM	> 100	> 100 µM	> 93.9 µM	17.7 µM	19.3	–	–	23.8	21.4	27.1	23.5 µM	16.6	> 86.3 µM	18.7	3.99
CCn1nc(C2CCN(C(=O)CCO)CC2)nc1-c1cnc(N)c(-c2nnc(C(C)(C)C)o2)n1	> 100 µM	–	–	> 100 µM	> 100 µM	> 100	> 100 µM	51.7 µM	31.3 µM	2.26	–	–	27.7	4.78	18.3	> 65.5 µM	0.966	> 100 µM	13	11.5
CCc1cc2c(c(OCC(F)(F)F)c(C(=O)NC3CCN(C(=O)CO)CC3)n2C)c(=O)n1CC(=O)c1ccccc1	> 100 µM	–	–	> 100 µM	> 100 µM	> 100	> 100 µM	> 100 µM	> 100 µM	92.2	–	–	> 100	70.4	> 59.4	> 82.9 µM	45.3	> 100 µM	> 100	80.2
COc1ccc2cc3c4cc(OC)c(OC)cc4ccn3c2c1	> 100 µM	> 100	–	–	> 100 µM	> 100	> 100 µM	> 100 µM	> 100 µM	–	–	–	–	–	–	–	–	–	–	–
ClCc1ccccc1Cn1cnc2nc(Cl)nc(Cl)c21	13.2 µM	–	–	2.46 µM	–	0.682	1.47 µM	2.52 µM	0.997 µM	5.29	–	–	0.851	0.582	0.266	0.414 µM	1.26	13.2 µM	6.04	0.369
CC(=O)O[C@@H]1c2c(c3c(=O)c4cccc(O)c4c(=O)c=3c2=[N+]=[N-])[C@H](OC(C)=O)[C@@H](OC(C)=O)[C@]1(C)O	1.16 µM and 0.228 µM	–	–	0.992 µM and 0.357 µM	1.51 µM and 2.28 µM	1.22	1.14 µM and 0.222 µM	1.19 µM and 0.352 µM	1.18 µM and 0.273 µM	0.0518	–	–	0.293	0.829	0.216	0.532 µM and 0.101 µM	0.167	1.42 µM and 0.88 µM	0.27	0.112
Oc1ccc(N=Nc2ccc(Br)cc2)c(O)c1	17.9 µM	–	–	5.62 µM	> 100 µM	> 100	24.8 µM	15.6 µM	21.6 µM	3.19	–	–	2.2	7.97	3.64	3.59 µM	2.27	3.65 µM	1.25	3.85
CCCCCN(CCCCC)CCC[C@@H](C)[C@H]1CC[C@H]2[C@@H]3[C@H](OCCCN)C[C@@H]4C[C@H](OCCCN)CC[C@]4(C)[C@H]3C[C@H](OCCCN)[C@]12C	21.9 µM	–	–	22.5 µM	12.5 µM	20.2	18.4 µM	51.7 µM	16.2 µM	5	–	–	6.03	2.46	4.79	4.53 µM	14.1	4.93 µM	1.98	3.85
COC(=O)c1c2c(c(C)[n+]([O-])c1C)C(=O)C(NCc1ccccc1)=CC2=O	7.94 µM	–	–	4.35 µM	22.2 µM	10.6	7.11 µM	10.1 µM	2.5 µM	2.47	–	–	1.97	4.63	3.12	2.46 µM	2.9	3.3 µM	1.81	1.23
CC(C)(C)c1cc(C[P+](c2ccccc2)(c2ccccc2)c2ccccc2)cc(C(C)(C)C)c1O	11 µM	–	–	3.53 µM	8.21 µM	12	3.76 µM	7.14 µM	0.716 µM	0.392	–	–	0.398	0.637	0.528	0.268 µM	2.28	1.2 µM	0.289	0.244
Clc1ccc(-c2cnc3c(-c4ccnc(N5CCNCC5)c4)cnn3c2)cc1	3.69 µM	–	–	3.46 µM	3.2 µM	3.27	3.51 µM	3.59 µM	3.22 µM	1.96	–	–	2	1.79	1.78	1.89 µM	1.61	3.72 µM	1.89	1.79
O=C(Nc1ccc(I)cc1F)c1cc(Br)ccc1O	> 100 µM	–	–	4.49 µM	2.04 µM	9.47	> 100 µM	2.24 µM	0.714 µM	2.81	–	–	0.603	0.393	0.849	0.754 µM	0.346	4.64 µM	0.652	0.251
CCCCCSc1ccc2nc(NC(=O)OCC)sc2c1	> 100 µM	–	–	> 100 µM	> 100 µM	> 100	11 µM	> 100 µM	> 100 µM	2.37	–	–	0.446	66.2	0.453	0.41 µM	1.39	0.763 µM	0.194	0.658
